According to patent publication US7785828B1 (priority 2003, dated 2010):

How the values were obtained:
Assay type in all cases: cell-based
Mycosphaerella fijiensis = test system: Mycosphaerella fijiensis
Septoria tritici = test system: Septoria tritici
Fusarium graminearum = test system: Fusarium graminearum

Row | Sequence | Antifungal activity, Mycosphaerella fijiensis (improvement compared to DmAMP1) (Mycosphaerella fijiensis) | Antifungal activity, Septoria tritici (improvement compared to DmAMP1) (Septoria tritici) | Antifungal activity, Fusarium graminearum (improvement compared to DmAMP1) (Fusarium graminearum)
1 | NLCEKASKTWTGNCGNTKHCDNQCRNWEGAAHGACHKRSGKWKCFCYFNC (Defensin like) [L9-36] | + (key: + indicating 1- to 5-fold improvement compared to DmAMP1; ++ indicating >5- to 10-fold improvement; +++ indicating >10-fold improvement) | + (key: + indicating 1- to 5-fold improvement compared to DmAMP1; ++ indicating >5- to 10-fold improvement; +++ indicating >10-fold improvement) | + (key: + indicating 1- to 5-fold improvement compared to DmAMP1; ++ indicating >5- to 10-fold improvement; +++ indicating >10-fold improvement)
2 | NLCERASKTWSGNCGNTKHCDNQCKSWEGAAHGACHVRNGKHKCFCYFNC (Defensin like) [L6-61] | + (key: + indicating 1- to 5-fold improvement compared to DmAMP1; ++ indicating >5- to 10-fold improvement; +++ indicating >10-fold improvement) | ++ (key: + indicating 1- to 5-fold improvement compared to DmAMP1; ++ indicating >5- to 10-fold improvement; +++ indicating >10-fold improvement) | +++ (key: + indicating 1- to 5-fold improvement compared to DmAMP1; ++ indicating >5- to 10-fold improvement; +++ indicating >10-fold improvement)
3 | NLCERASKTWSGNCGNTKHCDTQCKNWEGAKHGACHKRSGKWMCFCYFNC (Defensin like) [L3-144] | + (key: + indicating 1- to 5-fold improvement compared to DmAMP1; ++ indicating >5- to 10-fold improvement; +++ indicating >10-fold improvement) | + (key: + indicating 1- to 5-fold improvement compared to DmAMP1; ++ indicating >5- to 10-fold improvement; +++ indicating >10-fold improvement) | ++ (key: + indicating 1- to 5-fold improvement compared to DmAMP1; ++ indicating >5- to 10-fold improvement; +++ indicating >10-fold improvement)
4 | NLCERASKTWSGNCGNTKHCDTQCKSWEGAAHGACHVRNGKHKCFCYFNC (Defensin like) [L6-27] | + (key: + indicating 1- to 5-fold improvement compared to DmAMP1; ++ indicating >5- to 10-fold improvement; +++ indicating >10-fold improvement) | +++ (key: + indicating 1- to 5-fold improvement compared to DmAMP1; ++ indicating >5- to 10-fold improvement; +++ indicating >10-fold improvement) | +++ (key: + indicating 1- to 5-fold improvement compared to DmAMP1; ++ indicating >5- to 10-fold improvement; +++ indicating >10-fold improvement)
5 | NLCERASKTWSGNCGNTKHCDTQCRNWEGAAHGACHKRNGKWKCFCYFNC (Defensin like) [L6-12] | + (key: + indicating 1- to 5-fold improvement compared to DmAMP1; ++ indicating >5- to 10-fold improvement; +++ indicating >10-fold improvement) | + (key: + indicating 1- to 5-fold improvement compared to DmAMP1; ++ indicating >5- to 10-fold improvement; +++ indicating >10-fold improvement) | +++ (key: + indicating 1- to 5-fold improvement compared to DmAMP1; ++ indicating >5- to 10-fold improvement; +++ indicating >10-fold improvement)
6 | NLCERASKTWSGNCGNTKHCDNQCKNWEGAKHGACHVRNGKHKCFCYFNC [L6-60] (Defensin like) | + (key: + indicating 1- to 5-fold improvement compared to DmAMP1; ++ indicating >5- to 10-fold improvement; +++ indicating >10-fold improvement) | +++ (key: + indicating 1- to 5-fold improvement compared to DmAMP1; ++ indicating >5- to 10-fold improvement; +++ indicating >10-fold improvement) | +++ (key: + indicating 1- to 5-fold improvement compared to DmAMP1; ++ indicating >5- to 10-fold improvement; +++ indicating >10-fold improvement)
7 | NLCERASKTWSGNCGNTKHCDTQCKNWEGAAHGACHKRNGKWKCFCYFNC (Defensin like) [L9-13] | + (key: + indicating 1- to 5-fold improvement compared to DmAMP1; ++ indicating >5- to 10-fold improvement; +++ indicating >10-fold improvement) | + (key: + indicating 1- to 5-fold improvement compared to DmAMP1; ++ indicating >5- to 10-fold improvement; +++ indicating >10-fold improvement) | ++ (key: + indicating 1- to 5-fold improvement compared to DmAMP1; ++ indicating >5- to 10-fold improvement; +++ indicating >10-fold improvement)
8 | NLCEKASKTWTGNCGNTKHCDTQCKSWEGAKHGACHKRNGKWKCFCYFNC (Defensin like) [L5-22] | + (key: + indicating 1- to 5-fold improvement compared to DmAMP1; ++ indicating >5- to 10-fold improvement; +++ indicating >10-fold improvement) | ++ (key: + indicating 1- to 5-fold improvement compared to DmAMP1; ++ indicating >5- to 10-fold improvement; +++ indicating >10-fold improvement) | ++ (key: + indicating 1- to 5-fold improvement compared to DmAMP1; ++ indicating >5- to 10-fold improvement; +++ indicating >10-fold improvement)
9 | NLCERASKTWSGNCGNTKHCDNQCRNWEGAKHGACHKRSGKWKCFCYFNC (Defensin like) [L9-30] | + (key: + indicating 1- to 5-fold improvement compared to DmAMP1; ++ indicating >5- to 10-fold improvement; +++ indicating >10-fold improvement) | + (key: + indicating 1- to 5-fold improvement compared to DmAMP1; ++ indicating >5- to 10-fold improvement; +++ indicating >10-fold improvement) | ++ (key: + indicating 1- to 5-fold improvement compared to DmAMP1; ++ indicating >5- to 10-fold improvement; +++ indicating >10-fold improvement)
10 | NLCEKASKTWSGNCGNTKHCDNQCRSWEGAKHGACHVRNGKHKCFCYFNC (Defensin like) [L9-23] | ++ (key: + indicating 1- to 5-fold improvement compared to DmAMP1; ++ indicating >5- to 10-fold improvement; +++ indicating >10-fold improvement) | ++ (key: + indicating 1- to 5-fold improvement compared to DmAMP1; ++ indicating >5- to 10-fold improvement; +++ indicating >10-fold improvement) | +++ (key: + indicating 1- to 5-fold improvement compared to DmAMP1; ++ indicating >5- to 10-fold improvement; +++ indicating >10-fold improvement)
11 | DGVKLCERPSKTWSGNCGNTKHCDKQCKNWEKAKHGACHVRNGKWKCFCYFNC (Defensin like) [L7-112] | + (key: + indicating 1- to 5-fold improvement compared to DmAMP1; ++ indicating >5- to 10-fold improvement; +++ indicating >10-fold improvement) | + (key: + indicating 1- to 5-fold improvement compared to DmAMP1; ++ indicating >5- to 10-fold improvement; +++ indicating >10-fold improvement) | + (key: + indicating 1- to 5-fold improvement compared to DmAMP1; ++ indicating >5- to 10-fold improvement; +++ indicating >10-fold improvement)
12 | NLCERASKTWSGNCGNTKHCDTQCKNWEGAKHGACHVRNGKHKCFCYFNC (Defensin like) [L6-83] | + (key: + indicating 1- to 5-fold improvement compared to DmAMP1; ++ indicating >5- to 10-fold improvement; +++ indicating >10-fold improvement) | + (key: + indicating 1- to 5-fold improvement compared to DmAMP1; ++ indicating >5- to 10-fold improvement; +++ indicating >10-fold improvement) | +++ (key: + indicating 1- to 5-fold improvement compared to DmAMP1; ++ indicating >5- to 10-fold improvement; +++ indicating >10-fold improvement)
13 | NLCERASKTWSGNCGNTKHCDTQCRNWEGAKHGACHVRSGKHKCFCYFNC (Defensin like) [L9-27] | ++ (key: + indicating 1- to 5-fold improvement compared to DmAMP1; ++ indicating >5- to 10-fold improvement; +++ indicating >10-fold improvement) | ++ (key: + indicating 1- to 5-fold improvement compared to DmAMP1; ++ indicating >5- to 10-fold improvement; +++ indicating >10-fold improvement) | ++ (key: + indicating 1- to 5-fold improvement compared to DmAMP1; ++ indicating >5- to 10-fold improvement; +++ indicating >10-fold improvement)
14 | NLCERASKTWSGNCGNTKHCDTQCRSWEGAAHGACHKRNGKWKCFCYFNC (Defensin like) [L9-14] | + (key: + indicating 1- to 5-fold improvement compared to DmAMP1; ++ indicating >5- to 10-fold improvement; +++ indicating >10-fold improvement) | + (key: + indicating 1- to 5-fold improvement compared to DmAMP1; ++ indicating >5- to 10-fold improvement; +++ indicating >10-fold improvement) | ++ (key: + indicating 1- to 5-fold improvement compared to DmAMP1; ++ indicating >5- to 10-fold improvement; +++ indicating >10-fold improvement)
15 | NLCERASKTWTGNCGNTKHCDTQCRSWEGAAHGACHVRSGKHKCFCYFNC (Defensin like) [L5-23] | + (key: + indicating 1- to 5-fold improvement compared to DmAMP1; ++ indicating >5- to 10-fold improvement; +++ indicating >10-fold improvement) | + (key: + indicating 1- to 5-fold improvement compared to DmAMP1; ++ indicating >5- to 10-fold improvement; +++ indicating >10-fold improvement) | + (key: + indicating 1- to 5-fold improvement compared to DmAMP1; ++ indicating >5- to 10-fold improvement; +++ indicating >10-fold improvement)
16 | NLCEKASKTWSGNCGNTKHCDTQCRNWEGAKHGACHKRNGKWKCFCYFNC (Defensin like) [L9-46] | ++ (key: + indicating 1- to 5-fold improvement compared to DmAMP1; ++ indicating >5- to 10-fold improvement; +++ indicating >10-fold improvement) | +++ (key: + indicating 1- to 5-fold improvement compared to DmAMP1; ++ indicating >5- to 10-fold improvement; +++ indicating >10-fold improvement) | +++ (key: + indicating 1- to 5-fold improvement compared to DmAMP1; ++ indicating >5- to 10-fold improvement; +++ indicating >10-fold improvement)
